Test results taken from US20170044471A1, “Sulfate-Free Liquid Laundry Detergent” (The Sun Products Corporation, priority 2015, published 2017).
Read-outs that look alike come from different tables or passages of the source.

How the values were obtained:
[1] = tested on: Zein; conditions: normalized to SLS as 100%; Stepan Chemical company literature; cited from earlier work
[2] = tested on: Zein corn protein; test: Zein test (Zein score, skin irritation potential); conditions: 1 wt % active surfactant solution
Source text: (§1) Zein score can be measured using a Zein test (Gott, E., Aesthet. Medzin., Tenside 15: 313 (1966)), although other methodologies are known in the art. The Zein test determines the extent of denaturation of Zein corn protein after exposure to a surfactant for a given period of time. The higher the Zein score, the greater the skin irritation potential.
(§2) Zein scores for formulations (or detergent products) described herein refer to Zein scores obtained when a 10% dilution of a given formulation (or detergent product) is tested. Zein scores for individual surfactants refer to Zein scores obtained from testing 1% active surfactant solutions.
(§3) The “test surfactant solution” can be a solution with 1 wt % active surfactant when a surfactant is tested by itself Alternatively, the test surfactant solution can be a 10 wt % dilution of a formulation or product described herein. […] An aliquot (3.0 mL) was accurately measured and removed and set aside in a closed container as a blank solution. […] If all of the Zein protein was dissolved, 1 gram of additional Zein protein was added so that some solid remained undissolved. The mixture was stirred for one hour at room temperature. Undissolved Zein was then removed by filtration to obtain a filtrate solution. A 3.0 ml aliquot of the filtrate solution was accurately measured and placed in a tared aluminum pan and dried in an oven at 70° C. The percent of solids was calculated. Likewise, the blank solution was dried at 70° C. and the solids content of this 3 mL aliquot was determined. The solid weight in the blank solution was subtracted from the solid weight in the filtration solution and the quantity of dissolved Zein in the filtration solution was calculated by difference and reported as g Zein/100 g surfactant solution (also called “% Zein” or “Zein score”).
(§4) As a control, a Zein score was also measured for the Commercial Comparator using a 10% dilution.

[3] = tested on: Zein corn protein
Source text: as §1, §2, §3, §4

Molecule | Normalized Zein Score of Surfactant [1] | % Zein (g/100 g surfactant solution) [2] | % Zein (g/100 g surfactant solution) [3]
CCCCCCCCCCC(C(=O)OC)S(=O)(=O)O.[Na] (centres unmarked) [MES, Sodium methyl 2-sulfolaurate] | 68% | – | –
CCCCCCCCCCCCOS(=O)(=O)[O-].[Na+] [Sodium lauryl sulfate (SLS), Sodium lauryl sulfate] | – | 2.70 g/100 g surfactant solution | –
Cocoamidopropyl betaine [Cocoamidopropyl betaine (CAPB)] | 30% | – | 0.56 g/100 g surfactant solution
Disodium Laureth Sulfosuccinate [STEPAN-MILD SL3-BA] | 44% | – | –
Methyl ester sulfonate C16-C18 [Methyl ester sulfonate C16-C18 (MES)] | – | – | 1.55 g/100 g surfactant solution
Sodium C14-16 Olefin Sulfonate (AOS) [BIO-TERGE AS-40] | 75% | – | –
Sodium Methyl Cocoyl Taurate [Pureact WS Conc.] | 45% | – | –
